From PubChem BioAssay AID2423 (Broad Institute, 2010)
Records with an inconclusive call do not appear. Activity calls are given as the source filed them. How the calls were made is not given here.

System: C. albicans CaCi-8 + fluconazole, Alamar Blue growth, 48 h
Assay: resistant C. albicans growth inhibition with fluconazole, dose response, CaCi-8 strain, Alamar Blue fluorescence (AID 2423)

| Structure (SMILES) | EC50 |
| --- | --- |
| CCCCCCCCCCCCCCCC[n+]1cccc(C(=O)N(CC)CC)c1 | 6230 nM |
| COc1ccc(Cn2c(O)c(/C=N/NC(=O)c3cccnc3)c3ccccc3c2=O)cc1 | 765 nM |
| CCCCN(C)S(=O)(=O)c1ccc(C(=O)Nc2nnc(-c3ccco3)o2)cc1 | > 16000 nM (inactive) |
| CCOc1ccccc1NC(=O)C(=O)N/N=C/c1cc(Br)ccc1O | 1380 nM |
| COc1cccc(-c2nc(NC(C)C)c3ccccc3n2)c1O | 3200 nM |
| O=C(Oc1cc2oc(=O)c3c(c2cc1Cl)CCCC3)c1cccs1 | 653 nM |
| CC(=O)Oc1ccc2c(=O)c(-c3nc4ccccc4s3)coc2c1 | 3520 nM |
| COc1ccc(-c2cc(-c3c(O)c(OC)c4occc4c3OC)[nH]n2)cc1OC | > 16000 nM (inactive) |
| Cc1cc(/C=N/n2c(COc3ccccc3C)nc3ccccc3c2=O)c(O)c([N+](=O)[O-])c1 | 1620 nM |
| CN(C)S(=O)(=O)Oc1cccc(C(=O)Nc2ccc(Cl)c(Cl)c2)c1 | 711 nM |
| CCN1/C(=C\c2ccc3cc(C)ccc3[n+]2CC)Sc2cc(C)c(C)cc21 | < 120 nM |
| COc1ccc(C(C(=O)NC2CCCCC2)N(Cc2cccs2)C(=O)Cc2c[nH]c3ccccc23)cc1 (stereo not drawn) | > 15000 nM (inactive) |
| O=C(c1ccc(Cn2c(=O)[nH]c3ccccc3c2=O)cc1)N1CCN(c2ccc(F)cc2)CC1 | 3250 nM |
| C=CC(C)(C)c1c(O)c(CC=C(C)C)c(O)c2c(=O)c3ccc(O)c(O)c3oc12 | 3410 nM |
| CNCc1ccccc1Sc1ccc(O)c(O)c1 | 6840 nM |
| Brc1ccc(-c2nnc3sc(CN4CCN(c5ccccc5)CC4)cn23)cc1 | 288 nM |
| Cc1cccc(Cc2nnc(CCC(=O)N3CCCCC3c3nccs3)o2)c1 (stereo not drawn) | > 16000 nM (inactive) |
| CC1(O)CC(c2ccc(Cl)cc2)=NN1C(=O)c1ccc([N+](=O)[O-])cc1 (stereo not drawn) | 3210 nM |
| O=C(Oc1c(CN2CCOCC2)cc(Cl)c2cccnc12)c1ccccc1Br | 4120 nM |
| O=C(CSc1nnc(-c2ccco2)n1Cc1ccccc1)OC1CCCCC1 | > 15000 nM (inactive) |
| Cc1c(O)cc2n(c1=O)-c1ccc(Cl)cc1C2(C)C | 332 nM |
| O=C(Nc1nc(-c2ccccn2)cs1)c1cc2ccccc2o1 | 903 nM |
| CN1CCN(C(c2ccc(C(F)(F)F)cc2)c2cc(Cl)c3cccnc3c2O)CC1 (stereo not drawn) | 787 nM |
| COc1cnc(-c2ccccn2)nc1Sc1cccc(Cl)c1 | > 16000 nM (inactive) |
| CCN(CC)S(=O)(=O)c1ccc(N/N=C(\C)c2ccc(OC)cc2O)nc1 | > 16000 nM (inactive) |
| COc1ccc(-c2c[n+]3c(n2-c2ccccc2)CCCCC3)cc1 | 9580 nM |

| Structure (SMILES) | EC50 |
| --- | --- |
| Cc1cc(C(=O)Nc2sc3c(c2C#N)CCCC3)no1 | 979 nM |
| COc1ccc(/C=N\NC(=O)c2cc(O)c(O)c(O)c2)cc1CN1CCN(c2ccc(F)cc2)CC1 | 1580 nM |
| O=C(O)c1cnc(-c2ccccc2)nc1Sc1ccc(Cl)cc1 | > 15000 nM (inactive) |
| CCCn1nc([N+](=O)[O-])c(C(C#N)c2nc3ccccc3s2)c(Cl)c1=O (stereo not drawn) | 1400 nM |
| COc1cc(/C=C(\C#N)c2nc3ccccc3s2)cc([N+](=O)[O-])c1O | > 15000 nM (inactive) |
| COc1ccc(C(=O)NN/C(C)=C/C(=O)C(F)(F)C(F)(F)C(F)(F)F)cc1 | 5050 nM |
| Cc1n[nH]c(=S)n(NC(=O)CC(=O)Nn2c(=S)[nH]nc(C)c2=O)c1=O | < 120 nM |
| CC[n+]1c(/C=C/N(C)c2ccccc2)oc2ccccc21 | 7620 nM |
| CCn1c(/C=C/c2ccc([N+](=O)[O-])o2)nc2ccccc2c1=O | < 120 nM |
| COc1ccc2c(c1)/C(=C/c1cnc[nH]1)C(=O)N2 | 1250 nM |
| N#Cc1ccc(-c2nc3cc(Cl)ccc3c(=O)n2O)cc1 | 3570 nM |
| COc1ccc(C(=O)NNC(=S)NC(=O)c2ccccc2)cc1 | 2650 nM |
| Cc1cc2ccccn2c1C(C[N+](=O)[O-])c1c(F)cccc1Cl (stereo not drawn) | 382 nM |
| Cc1onc(C(=O)Nc2sc3c(c2C#N)CCCC3)c1[N+](=O)[O-] | 989 nM |
| CCCc1ccc(/C=C2\C(=O)c3ccccc3C(O)=C2C(=O)OCC)cc1 | > 15000 nM (inactive) |
| CCOc1ccc(C(=O)Nc2ccc(Cc3ccncc3)cc2)cc1Br | 3640 nM |
| Cc1ccc(O)c(C(=O)CC(=O)c2ccccc2Cl)c1 | 1570 nM |
| CCc1ccc2oc(-c3ccc(OC)cc3)cc(=Nc3c(C)n(C)n(-c4ccccc4)c3=O)c2c1 | 1540 nM |
| Cc1ccc2c(c1)sc(-c1ccc(N(C)C)cc1)[n+]2C | 193 nM |
| O=C1c2ccccc2NC(c2ccc(-c3cccc(Cl)c3)o2)N1O (stereo not drawn) | 2000 nM |
| Cn1c(=O)cc(OCCCC(=O)Nc2cccnc2)c2ccccc21 | > 16000 nM (inactive) |
| CCN(CC)C(=O)/C(=C/c1ccc2c(c1)OCO2)NC(=O)c1ccc(Br)cc1 | 1200 nM |
| CN(C)CCCNc1cc(C(C)(C)C)nc2c(-c3ccc(Cl)cc3)cnn12 | 5200 nM |
| Cc1ccc(S(=O)(=O)CC(C)N2CCOCC2)c(S(=O)(=O)CC(C)N2CCOCC2)c1 (stereo not drawn) | > 16000 nM (inactive) |
| O=C(CC1CC2CCC1C2)Nc1nc(-c2ccccn2)cs1 (stereo not drawn) | 641 nM |
| C(=C\c1ccccc1)/CN1CCN(c2ncnc3c2oc2ccccc23)CC1 | < 120 nM |

| Structure (SMILES) | EC50 |
| --- | --- |
| COc1cccc(/C=N/Nc2cc(C)nc(-c3ccccc3O)n2)c1O | < 120 nM |
| O=C(CCNC(=O)c1ccc(Br)cc1)Nc1nccs1 | > 15000 nM (inactive) |
| Cc1ccc(SCC(=O)Nc2ccc3c(c2)C(=O)N(C)C3=O)cc1 | > 15000 nM (inactive) |
| C=CCOC(=O)c1sc(NC(=O)c2ccco2)nc1C | 348 nM |
| Cc1ccc(S(=O)(=O)CCC(=O)Nc2nc(-c3ccncc3)cs2)cc1 | 2140 nM |
| O=C(Nc1nc2ccc(SC(F)F)cc2s1)c1ccc(NS(=O)(=O)c2ccc(F)c(F)c2)cc1 | 1640 nM |
| Cc1cc(C)c2ccc(N)nc2c1O | 14100 nM |
| CCCc1ccc(C2C3=C(CC(C)(C)CC3=O)NC3=C2C(=O)c2ccccc23)cc1 (stereo not drawn) | 1780 nM |
| O=C(NNC(=S)NC(=O)c1ccccc1[N+](=O)[O-])c1ccc(Cl)cc1Cl | 1870 nM |
| COc1ccc(C(=O)NCCN2CCOCC2)c(OC)c1OC | > 15000 nM (inactive) |
| O=C(Cc1cnn(-c2ccccc2)c1)c1ccc(O)c(O)c1O | 8400 nM |
| Nc1nonc1-n1nnc(C(=O)N/N=C/c2cc(Br)ccc2O)c1CSC1=NCCS1 | 359 nM |
| O=C(N/N=C/c1c(O)ccc2ccccc12)c1cccc(C(F)(F)F)c1 | 242 nM |
| CN(Cc1ccccc1)S(=O)(=O)c1ccc(C(=O)Nc2nnc(C3CC3)o2)cc1 | 291 nM |
| NC(N)=N/N=C/c1ccc(N(c2ccccc2)c2ccccc2)cc1 | > 15000 nM (inactive) |
| O=C1/C(=C/c2cccnc2)CCc2c1[nH]c1ccccc21 | 1240 nM |
| CCCC(=O)NC(c1ccccc1)c1ccc2cccnc2c1O (stereo not drawn) | 783 nM |
| CCOC(=O)c1ccc(NC(=O)Cn2ncc(Cl)c(Cl)c2=O)cc1 | 894 nM |
| CC(Oc1cc2oc(=O)c3c(c2cc1Cl)CCCC3)C(=O)NCc1ccncc1 (stereo not drawn) | 6600 nM |
| CC(=O)Nc1ccc(NC(=O)CCCN2C(=O)c3ccccc3C2=O)cc1 | > 15000 nM (inactive) |
| COc1ccc(/C=C2\N=C(SC)NC2=O)cc1 | 3750 nM |
| Cc1ccc(NC(=O)CSc2nnc([C@@H](N)Cc3c[nH]c4ccccc34)o2)c(C)c1 | > 15000 nM (inactive) |
| O=c1[nH]n2c(C(F)(F)F)cc(C3CC3)nc2c1N=Nc1ccccc1 | 4250 nM |
| Nc1ncnc(Sc2ncccn2)c1[N+](=O)[O-] | 484 nM |
| BrC(=C\c1ccccc1)/C=N/n1cnnc1 | 1570 nM |
| N=C1/C(=C\c2ccc(SCc3ccccc3)o2)C(=O)N=C2SC=NN12 | > 15000 nM (inactive) |
